Patent publication US20190100794A1, “Blood matrix metalloproteinase 9 (MMP9) is a predictive biomarker for cardiac diseases and disorders” (University of Rochester, priority 2017, published 2019)
Each block holds one compound with its values, some of them ahead of it.

Legend:
[1] = tested on: ERK5 in platelets; test: Platelet activation by FACS P-selectin expression after TRAP6 stimulation, with ERK5 inhibitor pre-incubation; assay type: cell-based, human; details: platelets from healthy volunteers or NSTEMI patients; BIX 02189 0-100 μM, 30 minutes; TRAP6 10 μM, 15 minutes; P<0.05
Method: (FIG. 4A) All patients were given 325 mg aspirin at least 30 minutes prior to blood draw. Platelets were isolated from healthy volunteer subjects (control) or from patients with STEMI or NSTEMI. ERK5 activation was assessed by Western blotting using a phosphor-specific antibody (P-ERK5). A pan-ERK5 antibody was used to detect total ERK5 and the ratio (P-ERK5/ERK5) was used to report ERK5 activity as mean±SEM, n=10-13. *p<0.05 control vs. STEMI, **p=0.01 control vs NSTEMI. The molecular weight is indicated in kiloDaltons (kDa). (FIG. 4B) All patients were given 325-mg aspirin at least 30 minutes before blood draw. […] Platelet activation was assessed by fluorescence-activated cell sorting by P-selectin expression, mean fluorescence intensity (MFI)±SEM, all performed in quadruplicate in each group, n=4. *P<0.05 between NSTEMI/TRAP6 and NSTEMI/TRAP6+BIX 02189 and **P<0.05 control/TRAP6 and control/TRAP6+BIX 02189.
For each study subject, blood was obtained by a trained medical professional into citrate plasma tubes, then centrifuged in a tabletop centrifuge at 1100 rpm for 15 mins. […] This reaction was then stopped by adding 100 μL of 2% formalin to each reaction, and then quantification of platelet surface P-selectin was made possible using an Accuri Flow Cytometer (BD Biosciences) at 10K events per sample. […] Platelet surface p-selectin was quantified in quadruplicate using the geometric mean. […]

[2] = target: T1, platelet cyclooxygenase (COX) (Homo sapiens, UniProt P23219); test: Plasma TxB2 concentration by ELISA as marker of aspirin inhibition of platelet cyclooxygenase; assay type: in vivo; details: STEMI and NSTEMI patients given 325 mg aspirin at least 30 min before blood draw, versus healthy volunteers not treated with aspirin
T1 construct: endogenous in cells; plasma TxB2 measured by ELISA
Method: Blood was taken from patients immediately upon presentation with STEMI or NSTEMI and compared to healthy volunteer subjects. Each patient had been given 325 mg aspirin at least 30 mins prior to the blood draw. Plasma was isolated and biomarker concentration was evaluated by ELISA. Plasma TxB2 concentration served as a surrogate marker to assess for differences in efficacy of aspirin between groups, comparing this to healthy volunteer subjects (control) not taking aspirin. […] ELISA=Enzyme-Linked Immunosorbant Assay.
Each patient was treated with 325 mg aspirin in the ambulance, in the ED, or hospital least 30 minutes prior to blood draw.
Enzyme-linked immunosorbant assays (ELISAs) were conducted according to the manufacturer's instructions using the sandwich ELISA technique. […] The ELISA for plasma thromboxane B2 (cat#501020) was purchased from Cayman Chemicals.

[3] = target: T2, PAR1 (Homo sapiens, UniProt P25116); details: triple therapy of DAPT plus vorapaxar, cited from earlier work
T2 construct: Thrombin-Receptor Antagonist Vorapaxar in Acute Coronary Syndromes (TRACER) study; host or cells: patients of a clinical trial (Tricoci P, et al., 2012, N Engl J Med)
T2 sequence (P25116 22-425): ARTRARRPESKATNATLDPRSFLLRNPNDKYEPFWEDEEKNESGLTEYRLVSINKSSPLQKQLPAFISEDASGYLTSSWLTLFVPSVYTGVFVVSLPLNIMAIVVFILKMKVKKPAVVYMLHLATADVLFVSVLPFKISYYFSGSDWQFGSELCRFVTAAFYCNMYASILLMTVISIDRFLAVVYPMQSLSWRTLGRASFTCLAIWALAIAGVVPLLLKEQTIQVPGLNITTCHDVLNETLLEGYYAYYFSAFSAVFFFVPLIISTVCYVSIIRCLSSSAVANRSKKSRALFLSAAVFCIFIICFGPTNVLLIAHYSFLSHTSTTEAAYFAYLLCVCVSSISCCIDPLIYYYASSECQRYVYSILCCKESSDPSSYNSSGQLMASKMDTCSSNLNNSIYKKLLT

T1 sequence (P23219 24-599): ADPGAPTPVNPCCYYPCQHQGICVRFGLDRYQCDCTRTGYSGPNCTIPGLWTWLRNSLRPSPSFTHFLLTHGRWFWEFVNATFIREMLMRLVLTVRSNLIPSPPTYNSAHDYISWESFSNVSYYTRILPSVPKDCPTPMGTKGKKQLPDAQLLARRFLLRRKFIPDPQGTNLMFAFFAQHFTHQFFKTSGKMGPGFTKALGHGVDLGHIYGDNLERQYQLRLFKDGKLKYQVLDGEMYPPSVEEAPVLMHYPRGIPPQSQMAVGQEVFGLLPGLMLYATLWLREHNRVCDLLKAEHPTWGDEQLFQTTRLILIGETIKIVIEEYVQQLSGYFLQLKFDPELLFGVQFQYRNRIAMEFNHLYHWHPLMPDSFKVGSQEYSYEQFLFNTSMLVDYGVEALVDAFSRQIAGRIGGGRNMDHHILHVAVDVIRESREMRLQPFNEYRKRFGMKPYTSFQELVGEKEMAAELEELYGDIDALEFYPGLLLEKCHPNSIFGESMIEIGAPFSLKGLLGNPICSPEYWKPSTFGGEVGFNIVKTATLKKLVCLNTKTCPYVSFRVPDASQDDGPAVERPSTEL

SMILES: CN(C)Cc1cccc(N/C(=C2\C(=O)Nc3cc(C(=O)N(C)C)ccc32)c2ccccc2)c1 [BIX 02189]
- TRAP6-induced platelet activation (P-selectin expression, MFI) [1]: prevents platelet activation

- plasma TxB2 concentration [2]: decrease
SMILES: CC(=O)Oc1ccccc1C(=O)O [aspirin]

SMILES: CCOC(=O)N[C@@H]1CC[C@@H]2[C@@H](C1)C[C@H]1C(=O)O[C@H](C)[C@H]1[C@H]2/C=C/c1ccc(-c2cccc(F)c2)cn1 [vorapaxar]
- relative reduction in the primary end point ([3]; nonsignificant): 8%
- bleeding [3]: trend toward clinically significant bleeding
